Results published in patent US4876359A, “Novel gamma-butyrolactone derivatives” (SS Pharmaceutical Co., Ltd., priority 1986, dated 1989).

target: T1, Angiotensin Converting Enzyme (ACE) (Oryctolagus cuniculus, UniProt P12822); experiment: ACE inhibitory activity (Method 1, rabbit lung enzyme, hippurylglycylglycine); assay type: biochemical; conditions: pH 8.3, 37° C., 30 minutes, hydrochlorides, read-out: ACE inhibitory activity concentration (IC50)
T1 construct: Lyophilized powder (1 g) of rabbit lungs (product of Pel-Freez Biologicals Company) was extracted; tissue Pel-Freez Biologicals Company; host or cells: rabbit lungs, lyophilized powder; 40,000 g supernatant of a phosphate buffer extract
T1 sequence (P12822 34-1310): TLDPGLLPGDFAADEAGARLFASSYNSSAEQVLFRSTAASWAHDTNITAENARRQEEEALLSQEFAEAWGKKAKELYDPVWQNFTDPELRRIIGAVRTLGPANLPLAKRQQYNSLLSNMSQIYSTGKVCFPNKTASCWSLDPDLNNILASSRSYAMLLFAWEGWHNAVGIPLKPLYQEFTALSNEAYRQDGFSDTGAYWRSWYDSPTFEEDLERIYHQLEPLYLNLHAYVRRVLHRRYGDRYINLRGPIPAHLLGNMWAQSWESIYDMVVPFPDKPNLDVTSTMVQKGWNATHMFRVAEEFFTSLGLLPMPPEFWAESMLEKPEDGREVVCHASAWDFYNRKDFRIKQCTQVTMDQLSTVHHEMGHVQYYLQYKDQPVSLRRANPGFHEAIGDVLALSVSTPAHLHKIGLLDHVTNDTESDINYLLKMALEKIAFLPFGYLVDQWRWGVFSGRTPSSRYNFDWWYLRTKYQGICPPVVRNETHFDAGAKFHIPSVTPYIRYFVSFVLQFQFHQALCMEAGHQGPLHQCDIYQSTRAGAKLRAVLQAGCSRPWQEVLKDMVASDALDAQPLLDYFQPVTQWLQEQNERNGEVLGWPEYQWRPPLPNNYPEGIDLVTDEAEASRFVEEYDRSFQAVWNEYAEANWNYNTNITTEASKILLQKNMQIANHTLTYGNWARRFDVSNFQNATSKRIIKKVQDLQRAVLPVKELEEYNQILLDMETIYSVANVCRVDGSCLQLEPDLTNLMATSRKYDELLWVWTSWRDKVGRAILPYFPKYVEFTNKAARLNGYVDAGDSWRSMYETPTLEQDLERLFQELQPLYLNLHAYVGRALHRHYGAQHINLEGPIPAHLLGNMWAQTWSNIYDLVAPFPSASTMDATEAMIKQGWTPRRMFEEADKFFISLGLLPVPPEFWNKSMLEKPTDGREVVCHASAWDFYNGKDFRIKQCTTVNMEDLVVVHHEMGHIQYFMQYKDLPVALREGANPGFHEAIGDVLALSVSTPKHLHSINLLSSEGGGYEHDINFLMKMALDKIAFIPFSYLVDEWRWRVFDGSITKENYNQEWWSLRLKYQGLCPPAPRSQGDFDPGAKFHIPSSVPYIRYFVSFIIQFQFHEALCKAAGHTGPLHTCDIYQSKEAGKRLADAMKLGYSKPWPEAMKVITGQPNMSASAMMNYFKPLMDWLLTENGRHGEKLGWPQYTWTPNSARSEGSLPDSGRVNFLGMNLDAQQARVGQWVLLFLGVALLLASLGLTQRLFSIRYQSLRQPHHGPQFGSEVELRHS
Protocol: (§1) The ACE inhibitory activities of the certain compounds (I) of this invention were determined by measuring their ACE activities in accordance with the method reported by Neels et al. [Clinical Chemistry, 29, 1399 (1983)].
(§2) Lyophilized powder (1 g) of rabbit lungs (product of Pel-Freez Biologicals Company) was extracted with 10 ml of a 50 mM buffer of potassium phosphate (pH 8.3) and a centrifugation supernatant (40,000 g×40 minutes) was used as an enzyme solution. Each test compound was dissolved at a concentration of 1 mg/ml in water, methanol or dimethyl sulfoxide depending on its solubility, followed by dilution with water to provide test solutions.
(§3) Added to 10 μl of each of the test solutions of various concentrations was 100 μl of a mixed reactant (pH 8.3) containing 50 mM of N-2-hydroxyethylpiperazine-N'-2-ethanesulfonic acid (HEPES), 300 mM of NaCl, 400 mM of Na2 SO4 and 30 mM of hippurylglycylglycine, followed by an addition of 10 μl of the enzyme solution to conduct a reaction at 37° C. for 30 minutes. To the reaction mixture, 100 μl of a sodium tungstate solution (100 g/l) and 100 μl of 0.33M sulfuric acid were added to terminate the reaction, followed by a further addition of 1 ml of water. The resultant mixture was centrifuged to collect 750 μl of a supernatant, to which 1 ml of a 100 mM borate buffer (pH 9.6) was added. Added further was 50 μl of a 60 mM solution of sodium 2,4,6-tri-nitrobenzenesulfonate. After warming the mixture at 37° C. for 15 minutes, its absorbance was measured at 420 nm. The inhibition rates at the various concentrations were calculated and IC50 was then determined by a method known per se in the art.

Structure (SMILES)	IC50 [nM]
C[C@H](N[C@H]1CC(c2ccccc2)OC1=O)C(=O)N1CCC[C@H]1C(=O)O (stereo partly drawn) [Comparative compound, reference compound]	14
CCCCCCC1CC(N[C@@H](C)C(=O)N2CCC[C@H]2C(=O)O)C(=O)O1 (single isomer, unassigned) [Compound 14, N-(2-oxo-5-hexyl-3-tetrahydrofuranyl)-L-alanyl-L-proline]	7
CCCCCCCC1CC(N[C@@H](C)C(=O)N2CCC[C@H]2C(=O)O)C(=O)O1 (single isomer, unassigned) [Compound 20, N-(2-oxo-5-heptyl-3-tetrahydrofuranyl)-L-alanyl-L-proline]	5.8
CCCCCC1CC(N[C@@H](C)C(=O)N2CCC[C@H]2C(=O)O)C(=O)O1 (single isomer, unassigned) [Compound 19, N-(2-oxo-5-pentyl-3-tetrahydrofuranyl)-L-alanyl-L-proline]	7.3
CCCCCCCCC1CC(N[C@@H](C)C(=O)N2CCC[C@H]2C(=O)O)C(=O)O1 (single isomer, unassigned) [Compound 21, N-(2-oxo-5-octyl-3-tetrahydrofuranyl)-L-alanyl-L-proline]	2.9
CCCCCCCCCCC1CC(N[C@@H](C)C(=O)N2CCC[C@H]2C(=O)O)C(=O)O1 (single isomer, unassigned) [Compound 22, N-(2-oxo-5-decanyl-3-tetrahydrofuranyl)-L-alanyl-L-proline]	3

target: T1, Angiotensin Converting Enzyme (ACE); experiment: ACE inhibitory activity after incubation in rat plasma (Method 2); assay type: biochemical, rabbit; conditions: pre-incubated in rat plasma at 37° C. for 1 hour, dihydrochlorides, read-out: ACE inhibitory activity concentration (IC50)
Protocol: as §1, §2, §3
Mixed to 1800 μl of rat plasma was 200 μl of each test solution, followed by incubation at 37° C. for 1 hour. The resulting mixture was then diluted with a 0.1M Tris-HCl buffer (pH 8.3). The procedure of Method 1 was thereafter followed to measure the ACE inhibitory activity.

Structure (SMILES)	IC50 [nM]
CCCCC1CC(N[C@@H](CCCCN)C(=O)N2CCC[C@H]2C(=O)O)C(=O)O1 (single isomer, unassigned) [Compound 37, N^α -(2-oxo-5-butyl-3-tetrahydrofuranyl)-L-lysyl-L-proline]	5.7
CCCCCC1CC(N[C@@H](CCCCN)C(=O)N2CCC[C@H]2C(=O)O)C(=O)O1 (single isomer, unassigned) [Compound 38, N^α -(2-oxo-5-pentyl-3-tetrahydrofuranyl)-L-lysyl-L-proline]	4
CCCCCCC1CC(N[C@@H](CCCCN)C(=O)N2CCC[C@H]2C(=O)O)C(=O)O1 (single isomer, unassigned) [Compound 35, N^α -(2-oxo-5-hexyl-3-tetrahydrofuranyl)-L-lysyl-L-proline]	4.7
